The term IC50 denotes the concentration needed to halve the response being measured.

One assay concerns the target T1, CCK-A receptor (Mus musculus, UniProt O08786).
T1 construct: crude membrane specimen from mouse pancreas; from tissue; host or cells: pancreas of male ddY mice, crude membranes
T1 sequence (O08786 1-436): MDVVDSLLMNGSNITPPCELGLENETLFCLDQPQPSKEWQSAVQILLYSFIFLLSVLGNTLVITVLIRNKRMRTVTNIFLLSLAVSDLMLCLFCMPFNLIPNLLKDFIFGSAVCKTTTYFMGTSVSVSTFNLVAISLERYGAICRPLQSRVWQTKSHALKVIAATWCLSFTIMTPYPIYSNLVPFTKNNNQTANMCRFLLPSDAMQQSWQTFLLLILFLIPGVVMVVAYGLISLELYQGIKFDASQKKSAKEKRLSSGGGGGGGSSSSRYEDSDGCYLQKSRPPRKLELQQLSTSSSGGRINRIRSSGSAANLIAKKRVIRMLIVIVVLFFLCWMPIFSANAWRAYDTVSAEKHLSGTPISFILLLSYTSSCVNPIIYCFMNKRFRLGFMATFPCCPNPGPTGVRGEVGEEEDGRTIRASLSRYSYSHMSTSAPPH
The assay is described as follows: CCK-A receptor antagonism, displacement of [3H]CCK-8, pancreas crude membrane. The class given is binding, mouse (male ddY). Particulars: mouse pancreas membrane, [3H]CCK-8 1 nM, 90 min, 25 °C; read-out: Receptor CCK-A (IC50). A general note: Loss of bound radioactivity is the signal in a displacement assay; it reports binding, not function.

The test system of the next assay is gastric acid secretion. In words: Inhibitory effect on gastric acid secretion by Schild method (pentagastrin-stimulated). The class given is in vivo, rat (male Sprague Dawley). Particulars: 0.3 mg/kg, intraduodenal, rat, read-out: Inhibitory Effect on acid secretion (Schild method), percent inhibition. The text has this: Evaluation of Inhibitory Effect on Gastric Acid Secretion by Schild Method
Twenty four hour starved (ad libitum for water) male Sprague Dawley rats (8-week-old) were anesthetized with urethane (1.5 g/kg S.C.) and kept breathing with esophagus cannulas. After laparotomy, esophagus cannulas were inserted orally up to proventriculus and ligated around gastric cardiac. Perfusion cannulas were inserted from duodenum into stomach and ligated around pylorus. Another cannulas were placed into duodenum and ligated for administration of drug. After sutra of abdomen, stomach was perfused via the esophagus cannulas with physiological saline (37° C.) while collecting perfusate for a 15 min interval. The perfusate was subjected to titration with 0.001 N NaOH solution to determine the acidity. When the basal acid secretion became stable, pentagastrin ([…]) was administered in a sustained manner via common carotid vein for about 90 min until the acid secretion reached approximately the highest level, when a test compound (0.5% M.C. suspension) was administered into duodenum through cannulas. The perfusate was collected for a 15 min interval to monitor the acid secretion for 90 min. The percent inhibition was calculated as follows:
Percent inhibition (%)=100×(A-B)/(C-B)
A: the minimum value of total acidity observed after the administration of a test compound;
B: the total acidity obtained immediately before the administration of pentagastrin; and
C: the total acidity obtained immediately before the administration of a test compound.

In a further assay the target is T2, CCK-B receptor (Mus musculus, UniProt P56481).
T2 construct: crude membrane specimen from mouse cerebral cortex; from tissue; host or cells: cerebral cortex of male ddY mice, crude membranes
T2 sequence (P56481 1-453): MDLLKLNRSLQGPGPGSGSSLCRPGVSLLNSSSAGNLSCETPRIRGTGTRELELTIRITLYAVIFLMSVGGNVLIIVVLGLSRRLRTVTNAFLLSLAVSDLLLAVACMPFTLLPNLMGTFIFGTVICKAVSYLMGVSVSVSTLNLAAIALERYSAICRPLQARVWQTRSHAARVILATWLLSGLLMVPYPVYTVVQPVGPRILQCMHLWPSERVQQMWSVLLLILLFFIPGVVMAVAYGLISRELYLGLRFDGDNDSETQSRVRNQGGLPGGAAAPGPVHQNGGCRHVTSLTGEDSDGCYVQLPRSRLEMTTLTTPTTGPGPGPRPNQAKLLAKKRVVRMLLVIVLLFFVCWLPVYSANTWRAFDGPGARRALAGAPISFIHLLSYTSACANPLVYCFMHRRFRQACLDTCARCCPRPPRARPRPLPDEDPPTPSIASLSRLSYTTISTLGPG
The assay is described as follows: CCK-B receptor antagonism, displacement of [3H]CCK-8, cerebral cortex crude membrane. Conditions: mouse cerebral cortex membrane, [3H]CCK-8 1 nM, 90 min, 25 °C; read-out: Receptor CCK-B (IC50). The assay is classed as binding, mouse (male ddY).

For the next assay, the target named is T3, gastrin receptor (Cavia porcellus, UniProt H0VZC5).
T3 construct: stomach was extracted from each animal immediately, from which gastric glands were prepared; from tissue; host or cells: gastric (fundic) glands of male Hartley guinea pigs
T3 sequence (H0VZC5 1-426): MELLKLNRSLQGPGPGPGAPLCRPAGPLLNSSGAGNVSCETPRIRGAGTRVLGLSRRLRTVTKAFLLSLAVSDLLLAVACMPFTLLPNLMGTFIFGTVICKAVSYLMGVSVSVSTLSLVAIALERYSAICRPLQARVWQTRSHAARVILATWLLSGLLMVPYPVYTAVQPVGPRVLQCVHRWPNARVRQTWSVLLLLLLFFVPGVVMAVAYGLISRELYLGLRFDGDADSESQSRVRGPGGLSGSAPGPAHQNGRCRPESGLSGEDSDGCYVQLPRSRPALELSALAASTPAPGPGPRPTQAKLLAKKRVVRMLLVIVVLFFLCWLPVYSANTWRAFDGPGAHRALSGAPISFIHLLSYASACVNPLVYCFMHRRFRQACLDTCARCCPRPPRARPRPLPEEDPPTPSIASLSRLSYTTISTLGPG
In words: Gastrin receptor antagonism, displacement of 125I-labeled gastrin, gastric (fundic) gland cells. The assay is classed as binding, guinea pig (male Hartley). Conditions: guinea pig gastric glands, 125I-gastrin 0.2 nM, 30 min, 25 °C; read-out: Receptor Gastrin (IC50).

Regarding `CCOC(=O)COc1cccc(NC(=O)NC2C(=O)N(CC(=O)C3CC3)c3ccccc3N(CC(=O)C3CC3)C2=O)c1` [Compound 17-v, 1,5-Bis-(cyclopropylcarbonylmethyl)-3-(N'-(m-(carboethoxymethoxy)phenyl)ureido)-1H-1,5-benzodiazepine-2,4(3H,5H)-dione], the IC50 at CCK-A receptor is 3600 nM; on CCK-B receptor it was 180 nM; on gastrin receptor it was 16 nM. For the same compound, in the assay on gastric acid secretion, the inhibition in vivo at 0.3 mg/kg worked out at 59%.
Take `Cc1cccc(NC(=O)NC2C(=O)N(CC(=O)N3CCCC3)c3ccccc3N(CC(=O)N3CCCC3)C2=O)c1` [Compound 8a]: the IC50 on CCK-A receptor was determined as 860 nM; at CCK-B receptor, 54 nM; at gastrin receptor it was 7 nM. Besides, the inhibition in vivo at 0.3 mg/kg in the assay with gastric acid secretion amounted to 49%.
As to `Cc1cccc(NC(=O)NC2C(=O)N(CC3CC3)c3ccccc3N(CC3CC3)C2=O)c1` [Compound 8o, 1,5-Bis-(cyclopropylmethyl)-3-{N'-(m-tolyl)-ureido}-1H-1,5-benzodiazepine-2,4(3H,5H)-dione], the IC50 at CCK-A receptor was determined as 860 nM; at CCK-B receptor, 23 nM; on gastrin receptor, 12 nM. Further, the inhibition in vivo at 0.3 mg/kg in the assay with gastric acid secretion came out at 60%.
As for `COC(=O)Cc1cccc(NC(=O)NC2C(=O)N(CC(=O)C3CC3)c3ccccc3N(CC(=O)C3CC3)C2=O)c1` [Compound 17-xii, 1,5-Bis-(cyclopropylcarbonylmethyl)-3-(N'-(m-(carbomethoxymethyl)phenyl)ureido)-1H-1,5-benzodiazepine-2,4(3H,5H)-dione], the half-maximal inhibitory concentration (IC50) on CCK-A receptor was 2500 nM; at CCK-B receptor, 48 nM; on gastrin receptor it was 15 nM. The inhibition in vivo at 0.3 mg/kg in the assay on gastric acid secretion was 48%.
On to `O=C(Nc1cccc(OCc2nnn[nH]2)c1)NC1C(=O)N(CC(=O)C2CC2)c2ccccc2N(CC(=O)C2CC2)C1=O` [Compound 17-vii, 1,5-Bis-(cyclopropylcarbonylmethyl)-3-(N'-(m-(tetrazoylmethoxy)phenyl)ureido)-1H-1,5-benzodiazepine-2,4(3H,5H)-dione], for which the IC50 came out at 1800 nM on CCK-A receptor, 4 nM at CCK-B receptor and 11 nM on gastrin receptor. The inhibition in vivo at 0.3 mg/kg with gastric acid secretion turned out to be 68%.
Regarding `O=C(O)COc1cccc(NC(=O)NC2C(=O)N(CC(=O)C3CC3)c3ccccc3N(CC(=O)C3CC3)C2=O)c1` [Compound 17-vi, 1,5-Bis-(cyclopropylcarbonylmethyl)-3-(N'-(m-(carboxymethoxy)phenyl)ureido)-1H-1,5-benzodiazepine-2,4(3H,5H)-dione], the results for the IC50 at CCK-A receptor, on CCK-B receptor and at gastrin receptor were 4400 nM, 16 nM and 3 nM, respectively. For the same compound, the inhibition in vivo at 0.3 mg/kg in the assay on gastric acid secretion was determined as 22%.
Turning to `CC(=O)NS(=O)(=O)c1cccc(NC(=O)NC2C(=O)N(CC(=O)C3CC3)c3ccccc3N(CC(=O)C3CC3)C2=O)c1` [Compound 17-xi, 1,5-Bis-(cyclopropylcarbonylmethyl)-3-(N'-(m-(acetylsulfamoyl)phenyl)ureido)-1H-1,5-benzodiazepine-2,4(3H,5H)-dione], the IC50 at CCK-A receptor was more than 10000 nM; on CCK-B receptor, 115 nM; at gastrin receptor it was 6 nM. The inhibition in vivo at 0.3 mg/kg with gastric acid secretion is 39%.
In the case of `Cc1cccc(NC(=O)NC2C(=O)N(Cc3cccc(N)c3)c3ccccc3N(Cc3cccc(N)c3)C2=O)c1` [Compound 8r], the figures for the IC50 at CCK-A receptor, at CCK-B receptor and at gastrin receptor were 760 nM, 21 nM and 18 nM, respectively. In addition, the inhibition in vivo at 0.3 mg/kg in the assay with gastric acid secretion was 46%.

(Values after patent US5776929A, “Benzodiazepine derivative” (Shionogi & Co., Ltd., priority 1993, dated 1998).)
